Data as given in ChEMBL document CHEMBL5634193, “Discovery of CVN293, a Brain Permeable KCNK13 (THIK-1) Inhibitor Suitable for Clinical Assessment” (ACS Med Chem Lett, 2024).
pIC50: −log10 of the molar value. ≈ marks a conversion by molar mass, not a printed value. Calls of active or inactive are those of the source. The rule behind the calls is not given here.

Columns and labels:
[1] = target: T1, Potassium channel subfamily K member 13 (Mus musculus, UniProt Q8R1P5); experiment: Inhibition of mouse KCNK13 transfected in HEK293 cells; assay type: cell-based
T1 sequence (Q8R1P5 whole entry): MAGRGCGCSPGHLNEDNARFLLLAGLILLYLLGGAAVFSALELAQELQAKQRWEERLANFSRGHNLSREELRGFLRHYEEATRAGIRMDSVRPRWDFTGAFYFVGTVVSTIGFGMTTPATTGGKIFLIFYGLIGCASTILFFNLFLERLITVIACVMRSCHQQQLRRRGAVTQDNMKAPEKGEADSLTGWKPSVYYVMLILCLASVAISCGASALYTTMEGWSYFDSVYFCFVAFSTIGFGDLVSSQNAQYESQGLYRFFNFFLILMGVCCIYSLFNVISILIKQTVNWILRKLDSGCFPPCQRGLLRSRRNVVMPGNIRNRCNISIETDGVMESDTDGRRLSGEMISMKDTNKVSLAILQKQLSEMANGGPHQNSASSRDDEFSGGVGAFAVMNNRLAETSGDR

[2] = Metabolic stability in human liver microsomes assessed as intrinsic clearance; assay type: ADME, Microsome; conditions: read-out: CLH
[3] = Metabolic stability in rat liver microsomes assessed as intrinsic clearance; assay type: ADME, Microsome; conditions: read-out: CLH
[4] = Metabolic stability in mouse liver microsomes assessed as intrinsic clearance; assay type: ADME, Microsome; conditions: read-out: CLH
[5] = Protein binding in mouse plasma assessed as unbound fraction by equilibrium dialysis; assay type: ADME, cell-free
[6] = Kinetic aqueous solubility of compound at pH 7.4; assay type: physicochemical; conditions: buffer, read-out: Kinetic_solubility
[7] = Unbound drug concentration in C57BL/6 mouse plasma at 10 mg/kg, po measured after 4 hrs by LC-MS/MS analysis; assay type: ADME, organism-based; conditions: in vivo
[8] = Unbound drug concentration in C57BL/6 mouse brain at 10 mg/kg, po measured after 4 hrs by LC-MS/MS analysis; assay type: ADME, organism-based; conditions: in vivo
[9] = Ratio of drug concentration in brain to plasma C57BL/6 mouse at 10 mg/kg, po measured after 4 hrs by LC-MS/MS analysis; assay type: ADME, organism-based; conditions: brain and plasma, read-out: BPR
[10] = Ratio of unbound drug concentration in brain to plasma C57BL/6 mouse at 10 mg/kg, po measured after 4 hrs by LC-MS/MS analysis; assay type: ADME, organism-based; conditions: brain and plasma, read-out: K(p,uu,brain)
[11] = Clearance in Sprague-Dawley rat at 0.5 mg/kg, iv; assay type: ADME, organism-based; conditions: in vivo
[12] = Volume of distribution at steady state in Sprague-Dawley rat at 0.5 mg/kg, iv; assay type: ADME, organism-based; conditions: in vivo, read-out: Vdss
[13] = C0 in Sprague-Dawley rat at 0.5 mg/kg, iv; assay type: ADME, organism-based; conditions: in vivo
[14] = Tmax in Sprague-Dawley rat at 3 mg/kg, po; assay type: ADME, organism-based; conditions: in vivo
[15] = AUC (0 to infinity) in Sprague-Dawley rat at 3 mg/kg, po; assay type: ADME, organism-based; conditions: in vivo
[16] = Half life in Sprague-Dawley rat at 3 mg/kg, po; assay type: ADME, organism-based; conditions: in vivo
[17] = Oral bioavailability in Sprague-Dawley rat at 3 mg/kg; assay type: ADME, organism-based; conditions: in vivo
[18] = Clearance in Beagle dog at 1 mg/kg, iv; assay type: ADME, organism-based, Canis lupus familiaris; conditions: in vivo
[19] = Volume of distribution at steady state in Beagle dog at 1 mg/kg, iv; assay type: ADME, organism-based, Canis lupus familiaris; conditions: in vivo, read-out: Vdss
[20] = C0 in Beagle dog at 1 mg/kg, iv; assay type: ADME, organism-based, Canis lupus familiaris; conditions: in vivo
[21] = AUC (0 to infinity) in Beagle dog at 1 mg/kg, iv; assay type: ADME, organism-based, Canis lupus familiaris; conditions: in vivo
[22] = Cmax in Beagle dog at 10 mg/kg, po; assay type: ADME, organism-based, Canis lupus familiaris; conditions: in vivo
[23] = Tmax in Beagle dog at 10 mg/kg, po; assay type: ADME, organism-based, Canis lupus familiaris; conditions: in vivo
[24] = AUC (0 to infinity) in Beagle dog at 10 mg/kg, po; assay type: ADME, organism-based, Canis lupus familiaris; conditions: in vivo
[25] = Half life in Beagle dog at 10 mg/kg, po; assay type: ADME, organism-based, Canis lupus familiaris; conditions: in vivo
[26] = Oral bioavailability in Beagle dog at 10 mg/kg; assay type: ADME, organism-based, Canis lupus familiaris; conditions: in vivo
[27] = Volume of distribution at steady state in Cynomolgus monkey at 1 mg/kg, iv; assay type: ADME, organism-based, Macaca fascicularis; conditions: in vivo, read-out: Vdss
[28] = C0 in Cynomolgus monkey at 1 mg/kg, iv; assay type: ADME, organism-based, Macaca fascicularis; conditions: in vivo
[29] = Half life in Cynomolgus monkey at 1 mg/kg, iv; assay type: ADME, organism-based, Macaca fascicularis; conditions: in vivo
[30] = Cmax in Cynomolgus monkey at 3 mg/kg, po; assay type: ADME, organism-based, Macaca fascicularis; conditions: in vivo
[31] = AUC (0 to infinity) in Cynomolgus monkey at 3 mg/kg, po; assay type: ADME, organism-based, Macaca fascicularis; conditions: in vivo
[32] = Half life in Cynomolgus monkey at 3 mg/kg, po; assay type: ADME, organism-based, Macaca fascicularis; conditions: in vivo
[33] = Oral bioavailability in Cynomolgus monkey at 3 mg/kg; assay type: ADME, organism-based, Macaca fascicularis; conditions: in vivo
[34] = target: T1, Potassium channel subfamily K member 13; experiment: Inhibition of mouse KCNK13 transfected in HEK293 cells assessed as reduction in thallium influx incubated for 15 mins in dark by FLIPR assay; assay type: cell-based
[35] = target: T2, Potassium channel subfamily K member 13 (Mus musculus) (UniProt Q8R1P5); experiment: Inhibition of mouse KCNK13 transfected in HEK293 cells assessed as reduction in thallium influx incubated for 15 mins in dark by FLIPR assay relative to control; assay type: cell-based
T2 sequence (whole entry): T1 sequence (Q8R1P5 whole entry)

HEK293 = experiment: Inhibition of recombinant human KCNK6 transfected in HEK293 cells assessed as reduction in thallium influx at 30 uM incubated for 15 mins in dark by FLIPR assay relative to control; assay type: cell-based
[36] = target: NACHT, LRR and PYD domains-containing protein 3 (Mus musculus) (UniProt Q8R4B8); experiment: Inhibition of NLRP3 inflammasome-mediated IL-1beta release in LPS-primed neonatal C57BL/6 P1-4 mouse microglia pretreated for 30 mins followed by media removal and compound re-addition with K+-free buffer measured after 2 hrs by ELISA relative to control; assay type: cell-based; conditions: time 150.0 min
NACHT, LRR and PYD domains-containing protein 3 (Mus musculus), sequence (Q8R4B8 whole entry, the tested form may be a part): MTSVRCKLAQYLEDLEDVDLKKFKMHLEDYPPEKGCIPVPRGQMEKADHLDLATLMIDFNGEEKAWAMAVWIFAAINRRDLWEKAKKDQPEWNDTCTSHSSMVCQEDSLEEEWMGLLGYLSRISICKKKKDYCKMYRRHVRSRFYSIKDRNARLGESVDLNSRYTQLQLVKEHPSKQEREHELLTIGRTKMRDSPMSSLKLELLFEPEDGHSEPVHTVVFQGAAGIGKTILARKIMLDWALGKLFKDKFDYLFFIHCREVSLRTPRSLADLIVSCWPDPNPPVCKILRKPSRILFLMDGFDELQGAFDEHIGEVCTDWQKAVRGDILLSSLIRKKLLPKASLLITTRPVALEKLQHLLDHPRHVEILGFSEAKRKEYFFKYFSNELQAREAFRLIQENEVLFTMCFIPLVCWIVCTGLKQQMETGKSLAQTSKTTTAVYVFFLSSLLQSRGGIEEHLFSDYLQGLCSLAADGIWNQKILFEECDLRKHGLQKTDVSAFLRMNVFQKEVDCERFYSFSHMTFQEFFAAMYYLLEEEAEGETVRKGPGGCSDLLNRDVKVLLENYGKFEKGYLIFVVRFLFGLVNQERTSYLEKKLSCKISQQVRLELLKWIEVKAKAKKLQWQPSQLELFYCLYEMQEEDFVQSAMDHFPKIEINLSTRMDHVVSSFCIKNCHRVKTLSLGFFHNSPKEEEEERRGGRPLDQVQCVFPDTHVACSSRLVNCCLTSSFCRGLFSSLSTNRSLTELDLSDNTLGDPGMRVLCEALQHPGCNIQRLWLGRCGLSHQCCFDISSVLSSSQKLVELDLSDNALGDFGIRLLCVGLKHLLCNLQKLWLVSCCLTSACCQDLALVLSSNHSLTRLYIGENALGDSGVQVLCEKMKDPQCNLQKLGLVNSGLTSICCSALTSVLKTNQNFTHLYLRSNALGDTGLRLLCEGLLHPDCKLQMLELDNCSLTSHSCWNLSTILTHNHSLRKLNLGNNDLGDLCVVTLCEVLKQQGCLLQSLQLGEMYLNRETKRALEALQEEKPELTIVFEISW

[37] = target: NACHT, LRR and PYD domains-containing protein 3 (Mus musculus) (UniProt Q8R4B8); experiment: Inhibition of NLRP3 inflammasome-mediated IL-1beta release in LPS/ATP-induced C57Bl6 mouse hippocampus at 1 uM pretreated for 1 hr followed by ATP addition measured after 3 hrs by ELISA; assay type: tissue-based; conditions: time 4.0 hrs
[38] = target: Sodium channel protein type 5 subunit alpha (Homo sapiens, UniProt Q14524); experiment: Inhibition of NaV1.5 (unknown origin); assay type: toxicity
Sodium channel protein type 5 subunit alpha, sequence (Q14524 whole entry): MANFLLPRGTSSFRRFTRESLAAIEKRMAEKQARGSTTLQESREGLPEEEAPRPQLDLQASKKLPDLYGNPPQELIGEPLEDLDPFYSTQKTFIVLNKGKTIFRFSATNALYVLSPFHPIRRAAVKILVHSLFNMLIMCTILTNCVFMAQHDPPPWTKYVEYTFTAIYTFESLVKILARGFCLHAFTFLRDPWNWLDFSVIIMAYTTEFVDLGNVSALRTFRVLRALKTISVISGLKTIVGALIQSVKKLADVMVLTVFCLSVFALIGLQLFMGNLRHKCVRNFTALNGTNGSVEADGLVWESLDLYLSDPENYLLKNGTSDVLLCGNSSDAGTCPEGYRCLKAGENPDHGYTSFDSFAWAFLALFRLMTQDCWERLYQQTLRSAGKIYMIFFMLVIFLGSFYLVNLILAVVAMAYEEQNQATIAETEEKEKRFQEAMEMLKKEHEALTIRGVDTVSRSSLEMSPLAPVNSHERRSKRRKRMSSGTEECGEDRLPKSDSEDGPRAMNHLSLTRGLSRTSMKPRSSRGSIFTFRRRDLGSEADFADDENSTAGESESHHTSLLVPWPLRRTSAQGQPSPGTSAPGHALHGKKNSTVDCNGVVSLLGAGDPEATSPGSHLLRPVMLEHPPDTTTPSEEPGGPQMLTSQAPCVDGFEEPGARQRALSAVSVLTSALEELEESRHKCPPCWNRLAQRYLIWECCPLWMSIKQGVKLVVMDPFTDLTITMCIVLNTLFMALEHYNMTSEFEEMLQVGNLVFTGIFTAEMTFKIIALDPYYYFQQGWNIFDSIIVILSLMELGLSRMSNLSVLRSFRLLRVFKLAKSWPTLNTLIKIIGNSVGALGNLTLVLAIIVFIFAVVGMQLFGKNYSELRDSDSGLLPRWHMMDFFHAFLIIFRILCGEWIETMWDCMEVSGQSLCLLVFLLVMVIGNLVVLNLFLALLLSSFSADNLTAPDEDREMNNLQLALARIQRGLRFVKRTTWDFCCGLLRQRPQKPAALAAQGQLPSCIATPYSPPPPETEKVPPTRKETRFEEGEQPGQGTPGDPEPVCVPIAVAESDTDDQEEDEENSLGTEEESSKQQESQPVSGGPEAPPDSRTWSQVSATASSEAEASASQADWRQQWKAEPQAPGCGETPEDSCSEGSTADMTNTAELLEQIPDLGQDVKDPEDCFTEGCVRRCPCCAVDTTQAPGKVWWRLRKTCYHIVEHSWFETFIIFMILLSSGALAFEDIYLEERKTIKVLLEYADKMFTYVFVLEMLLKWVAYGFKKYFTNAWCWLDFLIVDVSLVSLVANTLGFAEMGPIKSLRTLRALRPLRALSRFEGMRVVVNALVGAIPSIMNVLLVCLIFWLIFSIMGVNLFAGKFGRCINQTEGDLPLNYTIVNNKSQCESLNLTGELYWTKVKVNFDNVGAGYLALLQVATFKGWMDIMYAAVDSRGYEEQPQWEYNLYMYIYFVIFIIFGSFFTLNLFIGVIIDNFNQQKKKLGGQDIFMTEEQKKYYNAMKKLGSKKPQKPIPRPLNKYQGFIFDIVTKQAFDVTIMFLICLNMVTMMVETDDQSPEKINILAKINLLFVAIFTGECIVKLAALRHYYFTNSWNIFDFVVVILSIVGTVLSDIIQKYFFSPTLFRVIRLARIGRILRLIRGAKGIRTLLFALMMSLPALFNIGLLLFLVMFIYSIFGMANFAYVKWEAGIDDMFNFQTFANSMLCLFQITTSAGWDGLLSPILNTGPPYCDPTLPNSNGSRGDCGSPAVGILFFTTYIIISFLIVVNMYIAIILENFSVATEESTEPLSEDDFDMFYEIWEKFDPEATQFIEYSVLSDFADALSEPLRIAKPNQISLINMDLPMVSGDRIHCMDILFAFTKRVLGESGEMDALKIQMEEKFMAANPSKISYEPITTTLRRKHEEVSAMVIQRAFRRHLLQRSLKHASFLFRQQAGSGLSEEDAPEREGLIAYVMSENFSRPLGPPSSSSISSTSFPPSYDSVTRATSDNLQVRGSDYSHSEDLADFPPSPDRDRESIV

[39] = target: Voltage-dependent L-type calcium channel subunit alpha-1C (Homo sapiens, UniProt Q13936); experiment: Inhibition of CaV1.2 (unknown origin); assay type: toxicity
KCNK2 (Homo sapiens) = experiment: Inhibition of recombinant human KCNK2 transfected in HEK293 cells assessed as reduction in thallium influx at 30 uM incubated for 15 mins in dark by FLIPR assay relative to control

pIC50 [1]: 7.55
microsomal CLint [2]: < 9.6 µL/min/mg
microsomal CLint [3]: 9.9 µL/min/mg
microsomal CLint [4]: < 9.6 µL/min/mg
fraction unbound [5]: 0.173
solubility kinetic [6]: 94 µM (≈ 29.3 µg/mL)
Cp(f) [7]: 0.372 µM
Cp(f) [8]: 0.248 µM
Kp at 4 h [9]: 0.84
Kp uu at 4 h [10]: 0.66
clearance [11]: 35 mL/min/kg
Vd [12]: 1.85 L/kg
C0 [13]: 304 ng/mL
Tmax [14]: 1 h
AUC(0-inf) [15]: 1240 ng·h/mL
half-life [16]: 120 min
bioavailability [17]: 87%
clearance [18]: 38 mL/min/kg
Vd [19]: 1.42 L/kg
C0 [20]: 626 ng/mL
AUC [21]: 438 ng·h/mL
Cmax [22]: 241 ng/mL
Tmax [23]: 1.25 h
AUC [24]: 630 ng·h/mL
half-life [25]: 156 min
F [26]: 41%
Vd [27]: 1.45 L/kg
C0 [28]: 896 ng/mL
half-life [29]: 66 min
Cmax [30]: 165 ng/mL
AUC(0-inf) [31]: 546 ng·h/mL
half-life [32]: 114 min
bioavailability [33]: 24%
pIC50 [34]: 7.55
Imax [35]: 97%
Imax [36]: 59.1%
inhibition [37]: Active
Imax (KCNK2 (Homo sapiens)): 17.4%
Structure (SMILES): Nc1nonc1-c1nc2cccc(F)c2n1Cc1cccnn1
Imax (HEK293): 10.7%
inhibition (INH) [38]: Not Active
inhibition (INH) [39]: Not Active
